Test results: ChEMBL document CHEMBL4130390, “Crystal structure of Porphyromonas gingivalis dipeptidyl peptidase 4 and structure-activity relationships based on inhibitor profiling” (Eur J Med Chem, 2017)
Active and inactive are the calls of the source. The rule behind the calls is not given here.

Legend:
[1] = Selectivity index, ratio of IC50 for human DPP4 to IC50 for Porphyromonas gingivalis N-terminal His-tagged DPP4 expressed in Escherichia coli
[2] = target: Dipeptidyl peptidase IV (Porphyromonas gingivalis) (UniProt O31048); test: Inhibition of Porphyromonas gingivalis N-terminal His-tagged DPP4 expressed in Escherichia coli using Gly-Pro-p-nitroanilide as substrate after 1 hr
Chain of Dipeptidyl peptidase IV (Porphyromonas gingivalis) (O31048 20-723 limits assumed): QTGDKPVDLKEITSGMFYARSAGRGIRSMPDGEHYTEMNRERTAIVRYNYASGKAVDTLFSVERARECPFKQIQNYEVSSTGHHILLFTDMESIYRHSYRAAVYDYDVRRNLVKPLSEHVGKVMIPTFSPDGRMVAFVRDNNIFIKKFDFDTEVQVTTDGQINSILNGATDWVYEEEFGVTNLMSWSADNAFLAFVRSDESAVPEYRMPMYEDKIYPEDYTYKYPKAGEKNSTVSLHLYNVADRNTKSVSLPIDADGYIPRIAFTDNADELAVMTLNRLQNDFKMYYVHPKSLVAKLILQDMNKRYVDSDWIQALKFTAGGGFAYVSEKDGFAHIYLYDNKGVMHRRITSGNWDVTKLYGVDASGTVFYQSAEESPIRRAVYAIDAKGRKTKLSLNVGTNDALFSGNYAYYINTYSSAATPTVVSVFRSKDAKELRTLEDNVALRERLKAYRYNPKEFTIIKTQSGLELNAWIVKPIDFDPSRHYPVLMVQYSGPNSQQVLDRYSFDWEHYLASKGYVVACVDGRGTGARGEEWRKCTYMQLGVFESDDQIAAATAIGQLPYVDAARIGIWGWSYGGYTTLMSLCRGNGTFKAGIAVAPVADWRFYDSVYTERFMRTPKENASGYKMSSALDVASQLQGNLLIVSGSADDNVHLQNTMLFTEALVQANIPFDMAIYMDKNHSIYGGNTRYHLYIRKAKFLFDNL

[3] = target: Dipeptidyl peptidase IV (Porphyromonas gingivalis) (UniProt O31048); test: Inhibition of Porphyromonas gingivalis N-terminal His-tagged DPP4 expressed in Escherichia coli at 10 uM using Gly-Pro-p-nitroanilide as substrate relative to control
Dipeptidyl peptidase IV [4] = target: T1, Dipeptidyl peptidase IV (Porphyromonas gingivalis, UniProt O31048); test: Inhibition of Porphyromonas gingivalis N-terminal His-tagged DPP4 expressed in Escherichia coli using Gly-Pro-p-nitroanilide as substrate
T1 sequence (O31048 20-723 limits assumed): as above

[5] = target: Dipeptidyl peptidase IV (Porphyromonas gingivalis) (UniProt O31048); test: Inhibition of Porphyromonas gingivalis N-terminal His-tagged DPP4 expressed in Escherichia coli at 100 uM using Gly-Pro-p-nitroanilide as substrate relative to control
Dipeptidyl peptidase 9 = Dipeptidyl peptidase 9 (Bos taurus, UniProt E1BI31); test: Inhibition of bovine DPP9
Chain of Dipeptidyl peptidase 9 (E1BI31 whole entry): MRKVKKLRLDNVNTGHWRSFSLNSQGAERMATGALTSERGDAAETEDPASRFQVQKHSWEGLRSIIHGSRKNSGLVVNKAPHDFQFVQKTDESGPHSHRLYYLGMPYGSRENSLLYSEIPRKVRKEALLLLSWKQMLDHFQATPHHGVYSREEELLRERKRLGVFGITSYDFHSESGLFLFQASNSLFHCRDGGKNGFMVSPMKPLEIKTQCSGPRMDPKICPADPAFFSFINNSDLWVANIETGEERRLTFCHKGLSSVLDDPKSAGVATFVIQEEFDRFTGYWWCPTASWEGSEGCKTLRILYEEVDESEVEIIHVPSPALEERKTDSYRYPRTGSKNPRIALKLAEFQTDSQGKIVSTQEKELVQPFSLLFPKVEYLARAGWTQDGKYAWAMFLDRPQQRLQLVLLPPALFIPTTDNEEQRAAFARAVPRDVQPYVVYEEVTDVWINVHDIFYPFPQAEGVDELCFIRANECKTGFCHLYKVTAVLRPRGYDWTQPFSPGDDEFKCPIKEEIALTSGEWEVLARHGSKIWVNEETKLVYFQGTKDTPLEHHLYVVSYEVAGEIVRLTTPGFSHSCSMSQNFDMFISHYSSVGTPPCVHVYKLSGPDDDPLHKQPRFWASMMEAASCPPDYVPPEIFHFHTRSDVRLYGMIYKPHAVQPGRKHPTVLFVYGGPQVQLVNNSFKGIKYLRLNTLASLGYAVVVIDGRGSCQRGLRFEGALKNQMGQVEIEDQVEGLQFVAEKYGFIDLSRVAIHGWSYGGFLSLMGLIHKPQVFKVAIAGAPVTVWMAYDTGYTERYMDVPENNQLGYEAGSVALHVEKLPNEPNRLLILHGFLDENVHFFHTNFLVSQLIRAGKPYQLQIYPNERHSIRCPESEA

Dipeptidyl peptidase IV [6] = target: T1, Dipeptidyl peptidase IV; test: Inhibition of Porphyromonas gingivalis N-terminal His-tagged DPP4 expressed in Escherichia coli using Gly-Pro-p-nitroanilide as substrate preincubated for 15 mins

Row | SMILES | Ratio IC50 [1] | inhibition [2] | inhibition [3] [%] | IC50 (Dipeptidyl peptidase IV [4]; read-out: IC50) [nM] | inhibition [5] [%] | IC50 (Dipeptidyl peptidase 9) [nM] | Ki (Dipeptidyl peptidase IV [6]) [nM] | IC50 (Dipeptidyl peptidase IV [4])
1 | CC[C@@H](C)[C@H](N)C(=O)N1C[C@@H](N=[N+]=[N-])C[C@H]1C#N | 1.26 to 1.3 | Active | > 50 | 230 | < 50 |  |  | 
2 | N[C@@H](CCNCc1ccc(Cl)cc1)C(=O)N1CCCCC1 |  |  | > 50 | > 100000 |  | 76600 |  | 
3 | N#C[C@@H]1CCCN1C(=O)CNC12CC3CC(CC(O)(C3)C1)C2 [VILDAGLIPTIN] |  | Active | > 50 | 1300 |  |  | 17 | 
4 | N#C[C@@H]1C[C@H](N=[N+]=[N-])CN1C(=O)[C@@H](N)CCCCNCc1ccc2ccccc2c1 | 7.04 to 7.1 | Active | > 50 | 79 | < 50 |  |  | 
5 | N#C[C@@H]1C[C@H](N=[N+]=[N-])CN1C(=O)[C@@H](N)CCCCNC(=O)OCc1ccccc1 | 1.76 to 1.8 | Active | > 50 | 300 | < 50 |  |  | 
6 | CC#CCn1c(N2CCC[C@@H](N)C2)nc2c1c(=O)n(Cc1nc(C)c3ccccc3n1)c(=O)n2C [LINAGLIPTIN] |  |  | > 50 |  | < 50 | > 100000 |  | IC50 10-100 uM
7 | CC1CC(N=[N+]=[N-])CN1C(=O)C(N)CCC(=O)N1CCN(Cc2ccc(F)cc2)CC1 (stereo not drawn) | 0.425 |  | > 50 | 2400 | < 50 |  |  | 
8 | NC(CCCCNC(=O)OCc1ccccc1)C(=O)N1CCSC1 (stereo not drawn) | 0.17 |  | > 50 | 22000 | < 50 |  |  | 
9 | CC#CCn1c(N2CCNCC2)nc2c1c(=O)n(Cc1nc(C)c3ccccc3n1)c(=O)n2C | < 0.002 |  | > 50 |  | < 50 |  |  | IC50 10-100 uM
